{"source": "patent US11634447B2", "about": "(priority 2012, dated 2023)", "data": [{"system": "bacterial strain LF82 binding to the glycoprotein BSA-(Mannose)3", "experiment": "Bacterial Binding Assay (BBA)", "assay_type": "cell-based, Escherichia coli", "conditions": "read-out: Bacterial Binding Assay IC50, LF82/Luciferase strain binding to BSA-(Man)3 coated plates, luminescence", "summary_of_the_method": "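Inhibition of LF82/luciferase E. coli adhesion is read as luminescence after washing off unbound cells. Compound and bacteria (10^7 per well) are co-incubated 40-75 min at room temperature on wells coated with 0.5-2 μg/mL BSA-(Man)3, with BSA-only wells as background; IC50 values derived.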", "units": {"IC50": "nM"}, "values": [{"molecule": "Cc1cc(C2CC2c2ccc([C@H]3O[C@H](CO)[C@@H](O)[C@H](O)[C@@H]3O)c(C)c2)ccc1[C@H]1O[C@H](CO)[C@@H](O)[C@H](O)[C@@H]1O", "note": "(stereo partly drawn) [Compound 160, (2R,3S,4R,5S,6R)-2-(hydroxymethyl)-6-[2-methyl-4-[2-[3-methyl-4-[(2R,3S,4R,5S,6R)-3,4,5-trihydroxy-6-(hydroxymethyl)tetrahydropyran-2-yl]phenyl]cyclopropyl]phenyl]tetrahydropyran-3,4,5-triol]", "IC50": 17}, {"molecule": "O=S1(=O)c2cc(C#C[C@H]3O[C@H](CO)[C@@H](O)[C@H](O)[C@@H]3O)ccc2-c2ccc(C#C[C@H]3O[C@H](CO)[C@@H](O)[C@H](O)[C@@H]3O)cc21", "note": "[Compound 161, (2R,3S,4R,5S,6R)-2-[2-[5,5-dioxo-7-[2-[(2R,3S,4R,5S,6R)-3,4,5-trihydroxy-6-(hydroxymethyl)tetrahydropyran-2-yl]ethynyl]dibenzothiophen-3-yl]ethynyl]-6-(hydroxymethyl)tetrahydropyran-3,4,5-triol]", "IC50": 12}, {"molecule": "OC[C@H]1O[C@H](C#Cc2ccc3c(c2)C2(CCOCC2)c2cc(C#C[C@H]4O[C@H](CO)[C@@H](O)[C@H](O)[C@@H]4O)ccc2-3)[C@@H](O)[C@@H](O)[C@@H]1O", "note": "[Compound 162, (2R,2,3S,3,4R,4,5S,5,6R,6)-6,6((2tetrahydrospiro[fluorene-9,4pyran]-2,7-diyl)bis(ethyne-2,1-diyl))bis(2-(hydroxymethyl)tetrahydro-2H-pyran-3,4,5-triol)]", "IC50": 0.11}, {"molecule": "OC[C@H]1O[C@H](C#Cc2ccc3c(c2)C(=NO)c2cc(C#C[C@H]4O[C@H](CO)[C@@H](O)[C@H](O)[C@@H]4O)ccc2-3)[C@@H](O)[C@@H](O)[C@@H]1O", "note": "[Compound 163, 2,7-bis[2-[(2R,3S,4R,5S,6R)-3,4,5-trihydroxy-6-(hydroxymethyl)tetrahydropyran-2-yl]ethynyl]fluoren-9-one oxime]", "IC50": 18}, {"molecule": "OC[C@H]1O[C@H](C#Cc2ccc3c(c2)c2cc(C#C[C@H]4O[C@H](CO)[C@@H](O)[C@H](O)[C@@H]4O)ccc2n3-c2ccccc2)[C@@H](O)[C@@H](O)[C@@H]1O", "note": "[Compound 164]", "IC50": 35}, {"molecule": "CC(C)C1(O)c2cc(C#C[C@H]3O[C@H](CO)[C@@H](O)[C@H](O)[C@@H]3O)ccc2-c2ccc(C#C[C@H]3O[C@H](CO)[C@@H](O)[C@H](O)[C@@H]3O)cc21", "note": "[Compound 165, (2R,3S,4R,5S,6R)-2-[2-[9-hydroxy-9-isopropyl-7[2-[(2R,3S,4R,5S,6R)-3,4,5-trihydroxy-6-(hydroxymethyl)tetrahydropyran-2-yl]ethynyl]fluoren-2-yl]ethynyl]-6-(hydroxymethyl)tetrahydropyran-3,4,5-triol]", "IC50": 2.4}, {"molecule": "CCC1(O)c2cc(C#C[C@H]3O[C@H](CO)[C@@H](O)[C@H](O)[C@@H]3O)ccc2-c2ccc(C#C[C@H]3O[C@H](CO)[C@@H](O)[C@H](O)[C@@H]3O)cc21", "note": "[Compound 166, (2R,3S,4R,5S,6R)-2-[2-[9-ethyl-9-hydroxy-7-[2-[(2R,3S,4R,5S,6R)-3,4,5-trihydroxy-6-(hydroxymethyl)tetrahydropyran-2-yl]ethynyl]fluoren-2-yl]ethynyl]-6-(hydroxymethyl)tetrahydropyran-3,4,5-triol]", "IC50": 3}, {"molecule": "OC[C@H]1O[C@H](C#Cc2ccc3c(c2)C(O)(c2ccccc2)c2cc(C#C[C@H]4O[C@H](CO)[C@@H](O)[C@H](O)[C@@H]4O)ccc2-3)[C@@H](O)[C@@H](O)[C@@H]1O", "note": "(stereo partly drawn) [Compound 167, (2R,3S,4R,5S,6R)-2-(hydroxymethyl)-6-[2-[9-hydroxy-9-phenyl-7-[2-[(2R,3S,4R,5S,6R)-3,4,5-trihydroxy-6-(hydroxymethyl)tetrahydropyran-2-yl]ethynyl]fluoren-2-yl]ethynyl]tetrahydropyran-3,4,5-triol]", "IC50": 16}, {"molecule": "CCCC1(O)c2cc(C#C[C@H]3O[C@H](CO)[C@@H](O)[C@H](O)[C@@H]3O)ccc2-c2ccc(C#C[C@H]3O[C@H](CO)[C@@H](O)[C@H](O)[C@@H]3O)cc21", "note": "[Compound 168, (2R,3S,4R,5S,6R)-2-(hydroxymethyl)-6-[2-[9-hydroxy-9-propyl-7-[2-[(2R,3S,4R,5S,6R)-3,4,5-trihydroxy-6-(hydroxymethyl)tetrahydropyran-2-yl]ethynyl]fluoren-2-yl]ethynyl]tetrahydropyran-3,4,5-triol]", "IC50": 3.1}, {"molecule": "CC(C)CC1(O)c2cc(C#C[C@H]3O[C@H](CO)[C@@H](O)[C@H](O)[C@@H]3O)ccc2-c2ccc(C#C[C@H]3O[C@H](CO)[C@@H](O)[C@H](O)[C@@H]3O)cc21", "note": "[Compound 169, (2R,3S,4R,5S,6R)-2-[2-[9-hydroxy-9-isobutyl-7-[2-[(2R,3S,4R,5S,6R)-3,4,5-trihydroxy-6-(hydroxymethyl)tetrahydropyran-2-yl]ethynyl]fluoren-2-yl]ethynyl]-6-(hydroxymethyl)tetrahydropyran-3,4,5-triol]", "IC50": 0.66}, {"molecule": "COc1cccc(C2(O)c3cc(C#C[C@H]4O[C@H](CO)[C@@H](O)[C@H](O)[C@@H]4O)ccc3-c3ccc(C#C[C@H]4O[C@H](CO)[C@@H](O)[C@H](O)[C@@H]4O)cc32)c1", "note": "[Compound 170, (2R,3S,4R,5S,6R)-2-[2-[9-hydroxy-9-(3-methoxyphenyl)-7-[2-[(2R,3S,4R,5S,6R)-3,4,5-trihydroxy-6-(hydroxymethyl)tetrahydropyran-2-yl]ethynyl]fluoren-2-yl]ethynyl]-6-(hydroxymethyl)tetrahydropyran-3,4,5-triol]", "IC50": 7.5}, {"molecule": "OC[C@H]1O[C@H](C#Cc2ccc(C#C[C@H]3O[C@H](CO)[C@@H](O)[C@H](O)[C@@H]3O)c3[nH]ncc23)[C@@H](O)[C@@H](O)[C@@H]1O", "note": "[Compound 171, (2R,3S,4R,5S,6R)-2-(hydroxymethyl)-6-[2-[7-[2-[(2R,3S,4R,5S,6R)-3,4,5-trihydroxy-6-(hydroxymethyl)tetrahydropyran-2-yl]ethynyl]-1H-indazol-4-yl]ethynyl]tetrahydropyran-3,4,5-triol]", "IC50": 13}, {"molecule": "Cc1cc(N2CC(=O)N(c3ccc([C@H]4O[C@H](CO)[C@@H](O)[C@H](O)[C@@H]4O)c(C)c3)CC2=O)ccc1[C@H]1O[C@H](CO)[C@@H](O)[C@H](O)[C@@H]1O", "note": "[Compound 172, 1,4-bis[3-methyl-4-[(2R,3S,4R,5S,6R)-3,4,5-trihydroxy-6-(hydroxymethyl)tetrahydropyran-2-yl]phenyl]piperazine-2,5-dione]", "IC50": 188}, {"molecule": "CN(C)CC(O)Cn1c2ccc(C#C[C@H]3O[C@H](CO)[C@@H](O)[C@H](O)[C@@H]3O)cc2c2cc(C#C[C@H]3O[C@H](CO)[C@@H](O)[C@H](O)[C@@H]3O)ccc21", "note": "(stereo partly drawn) [Compound 173, (2R,3S,4R,5S,6R)-2-[2-[9-[3-(dimethylamino)-2-hydroxy-propyl]-6-[2-[(2R,3S,4R,5S,6R)-3,4,5-trihydroxy-6-(hydroxymethyl)tetrahydropyran-2-yl]ethynyl]carbazol-3-yl]ethynyl]-6-(hydroxymethyl)tetrahydropyran-3,4,5-triol]", "IC50": 9.3}, {"molecule": "OCC(O)Cn1c2ccc(C#C[C@H]3O[C@H](CO)[C@@H](O)[C@H](O)[C@@H]3O)cc2c2cc(C#C[C@H]3O[C@H](CO)[C@@H](O)[C@H](O)[C@@H]3O)ccc21", "note": "(stereo partly drawn) [Compound 174, (2R,3S,4R,5S,6R)-2-[2-[9-(2,3-dihydroxypropyl)-6-[2-[(2R,3S,4R,5S,6R)-3,4,5-trihydroxy-6-(hydroxymethyl)tetrahydropyran-2-yl]ethynyl]carbazol-3-yl]ethynyl]-6-(hydroxymethyl)tetrahydropyran-3,4,5-triol]", "IC50": 4.7}, {"molecule": "CCOC(=O)Cn1c2cc(C#C[C@H]3O[C@H](CO)[C@@H](O)[C@H](O)[C@@H]3O)ccc2c2ccc(C#C[C@H]3O[C@H](CO)[C@@H](O)[C@H](O)[C@@H]3O)cc21", "note": "[Compound 175, ethyl 2-[2,7-bis[2-[(2R,3S,4R,5S,6R)-3,4,5-trihydroxy-6-(hydroxymethyl)tetrahydropyran-2-yl]ethynyl]carbazol-9-yl]acetate]", "IC50": 6.5}, {"molecule": "O=C(O)Cn1c2cc(C#C[C@H]3O[C@H](CO)[C@@H](O)[C@H](O)[C@@H]3O)ccc2c2ccc(C#C[C@H]3O[C@H](CO)[C@@H](O)[C@H](O)[C@@H]3O)cc21", "note": "[Compound 176, 2-[2,7-Bis[2-[(2R,3S,4R,5S,6R)-3,4,5-trihydroxy-6-(hydroxymethyl)tetrahydropyran-2-yl]ethynyl]carbazol-9-yl]acetic acid]", "IC50": 10}, {"molecule": "CN1CCN(CCNC(=O)Cn2c3cc(C#C[C@H]4O[C@H](CO)[C@@H](O)[C@H](O)[C@@H]4O)ccc3c3ccc(C#C[C@H]4O[C@H](CO)[C@@H](O)[C@H](O)[C@@H]4O)cc32)CC1", "note": "[Compound 177, 2-[2,7-bis[2-[(2R,3S,4R,5S,6R)-3,4,5-trihydroxy-6-(hydroxymethyl)tetrahydropyran-2-yl]ethynyl]carbazol-9-yl]-N-[2-(4-methylpiperazin-1-yl)ethyl]acetamide]", "IC50": 0.66}, {"molecule": "O=C(Cn1c2cc(C#C[C@H]3O[C@H](CO)[C@@H](O)[C@H](O)[C@@H]3O)ccc2c2ccc(C#C[C@H]3O[C@H](CO)[C@@H](O)[C@H](O)[C@@H]3O)cc21)NCCN1CCOCC1", "note": "[Compound 178, 2-[2,7-bis[2-[(2R,3S,4R,5S,6R)-3,4,5-trihydroxy-6-(hydroxymethyl)tetrahydropyran-2-yl]ethynyl]carbazol-9-yl]-N-(2-morpholinoethyl)acetamide]", "IC50": 3.1}, {"molecule": "CN1CCN(C(=O)Cn2c3cc(C#C[C@H]4O[C@H](CO)[C@@H](O)[C@H](O)[C@@H]4O)ccc3c3ccc(C#C[C@H]4O[C@H](CO)[C@@H](O)[C@H](O)[C@@H]4O)cc32)CC1", "note": "[Compound 179, 2-[2,7-bis[2-[(2R,3S,4R,5S,6R)-3,4,5-trihydroxy-6-(hydroxymethyl)tetrahydropyran-2-yl]ethynyl]carbazol-9-yl]-1-(4-methylpiperazin-1-yl)ethanone]", "IC50": 7.1}, {"molecule": "O=C(Cn1c2cc(C#C[C@H]3O[C@H](CO)[C@@H](O)[C@H](O)[C@@H]3O)ccc2c2ccc(C#C[C@H]3O[C@H](CO)[C@@H](O)[C@H](O)[C@@H]3O)cc21)N1CCOCC1", "note": "[Compound 180, 2-[2,7-bis[2-[(2R,3S,4R,5S,6R)-3,4,5-trihydroxy-6-(hydroxymethyl)tetrahydropyran-2-yl]ethynyl]carbazol-9-yl]-1-morpholino-ethanone]", "IC50": 5.5}]}]}
